Test results reported in patent US20010051374A1, “HIGH […] MO[…]” (priority 1997, published 2001).

System: 293 cells
Test: Coamatic Factor VIII assay of supernatants of 293 cells infected with rAAV
Type: cell-based, human
Parameters: dose or concentration left out as unconfirmed
Details: etoposide added to medium of cells co-infected with rAAV-80L and rAAV-90H
Experimental: The heavy and light chain constructs, pKm201-80L and pKm201-90H, were packaged following standard procedures for the production of rAAV (Zhou et al. (1994) J. Exp. Med. 179:1867-1875). rAAV was purified as described (Wang et al. (1995) Proc. Natl. Acad. Sci. USA 92:12416-12420) and used to infect 293 cells plated in 6-well plates. Supernatants of infected cells were collected 48 h after infection and assayed for biologically active factor VIII by Coamatic Factor VIII (KabiVitrum, Stockholm), following the manufacturer's instructions. Normal human plasma (George King Bio-Medical, Inc., Overland Park, Kans.) was used to generate a standard curve. Cells were infected at a multiplicity of infection (MOI) of 6000 rAAV particles per cell. The experiment was done both with and without the addition of etoposide ([…]) to the medium. […] The amount of factor VIII was increased in the presence of etoposide.

COc1cc([C@@H]2c3cc4c(cc3[C@@H](O[C@@H]3O[C@@H]5CO[C@@H](C)O[C@H]5[C@H](O)[C@H]3O)[C@H]3COC(=O)[C@H]23)OCO4)cc(OC)c1O [etoposide]
amount of factor VIII: increased
